Tested on: ER-alpha MCF7
Test: ER-alpha MCF7 HCS EC50; stated as measured by in vitro cell proliferation assays of Examples 902 and 903
Type: cell-based
Settings: Homo sapiens, MCF7, MCF7 cells; Table 2
Method in brief: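 MCF7 cells seeded 1000-2000 cells/well for 16 h, then treated with nine-point 1:2 DMSO dilution series in quadruplicate at 37 °C, 5% CO2 for 4 days. Viable cells quantified by CellTiter-Glo ATP luminescence; EC50 calculated. Controls: fulvestrant at final 100 nM, DMSO 0.2% v/v.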

Structure (SMILES) | EC50 [nM]
C[C@@H]1Cc2c([nH]c3ccccc23)[C@@H](c2c(F)cc(NCCN3CC(CF)C3)cc2F)N1S(C)(=O)=O [Example 326, 3,5-difluoro-N-[2-[3-(fluoromethyl)azetidin-1-yl]ethyl]-4-[(1R,3R)-3-methyl-2-methylsulfonyl-1,3,4,9-tetrahydropyrido[3,4-b]indol-1-yl]aniline] | 0.305
C[C@@H]1Cc2c([nH]c3ccccc23)[C@@H](c2ccc(NCCN3CC(CF)C3)cc2F)N1CC(C)(F)CO (stereo partly drawn) [Example 327, 2-fluoro-3-((1R,3R)-1-(2-fluoro-4-((2-(3-(fluoromethyl)azetidin-1-yl)ethyl)amino)phenyl)-3-methyl-1,3,4,9-tetrahydro-2H-pyrido[3,4-b]indol-2-yl)-2-methylpropan-1-ol] | 0.347
C[C@@H]1Cc2c([nH]c3ccccc23)[C@@H](c2ccc(NCCN3CC(CF)C3)cc2)N1CC(C)(F)CO (stereo partly drawn) [Example 328, 2-fluoro-3-((1R,3R)-1-(4-((2-(3-(fluoromethyl)azetidin-1-yl)ethyl)amino)phenyl)-3-methyl-1,3,4,9-tetrahydro-2H-pyrido[3,4-b]indol-2-yl)-2-methylpropan-1-ol] | 0.167
C[C@@H]1Cc2c([nH]c3ccccc23)[C@@H](c2ccc(OCCN3CC(CF)C3)cc2)N1S(=O)(=O)N(C)C [Example 329, (1R,3R)-1-[4-[2-[3-(fluoromethyl)azetidin-1-yl]ethoxy]phenyl]-N,N,3-trimethyl-1,3,4,9-tetrahydropyrido[3,4-b]indole-2-sulfonamide] | 1
C[C@@H]1Cc2c([nH]c3ccccc23)[C@@H](c2ccc(OC3CN(CCCF)C3)cc2)N1S(C)(=O)=O [Example 330, (1R,3R)-1-[4-[1-(3-fluoropropyl)azetidin-3-yl]oxyphenyl]-3-methyl-2-methylsulfonyl-1,3,4,9-tetrahydropyrido[3,4-b]indole] | 2
C[C@@H]1Cc2c([nH]c3ccccc23)[C@@H](c2c(F)cc(OC3CN([C@H]4C[C@H](O)C4)C3)cc2F)N1CC(C)(C)F [Example 331, 3-[3-[3,5-difluoro-4-[(1R,3R)-2-(2-fluoro-2-methyl-propyl)-3-methyl-1,3,4,9-tetrahydropyrido[3,4-b]indol-1-yl]phenoxy]azetidin-1-yl]cyclobutanol] | 0.236
CC(C)[S@+]([O-])N1[C@H](c2ccc(OCCN3CC(CF)C3)cc2)c2[nH]c3ccccc3c2C[C@H]1C [Example 332, (1R,3R)-1-(4-(2-(3-(fluoromethyl)azetidin-1-yl)ethoxy)phenyl)-2-((S)-isopropylsulfinyl)-3-methyl-2,3,4,9-tetrahydro-1H-pyrido[3,4-b]indole] | 8
CC(C)[S@@+]([O-])N1[C@H](c2ccc(OCCN3CC(CF)C3)cc2)c2[nH]c3ccccc3c2C[C@H]1C [Example 333, (1R,3R)-1-(4-(2-(3-(fluoromethyl)azetidin-1-yl)ethoxy)phenyl)-2-((R)-isopropylsulfinyl)-3-methyl-2,3,4,9-tetrahydro-1H-pyrido[3,4-b]indole] | 48
C[C@@H]1Cc2c([nH]c3ccccc23)[C@@H](c2c(F)cc(OC3CN([C@H]4C[C@@H](O)C4)C3)cc2F)N1CC(C)(C)F [Example 334, (1S,3s)-3-(3-(3,5-difluoro-4-((1R,3R)-2-(2-fluoro-2-methylpropyl)-3-methyl-2,3,4,9-tetrahydro-1H-pyrido[3,4-b]indol-1-yl)phenoxy)azetidin-1-yl)cyclobutanol] | 0.13
C[C@@H]1Cc2c([nH]c3ccccc23)[C@@H](c2c(F)cc(OC3CN(CCCCCF)C3)cc2F)N1CC(C)(C)F [Example 335, (1R,3R)-1-[2,6-difluoro-4-[1-(5-fluoropentyl)azetidin-3-yl]oxy-phenyl]-2-(2-fluoro-2-methyl-propyl)-3-methyl-1,3,4,9-tetrahydropyrido[3,4-b]indole] | 0.442
C[C@@H]1Cc2c([nH]c3ccccc23)[C@@H](c2cc(F)c(OC3CN(CCCF)C3)c(F)c2)N1CC(C)(C)F [Example 336, (1R,3R)-1-[3,5-difluoro-4-[1-(3-fluoropropyl)azetidin-3-yl]oxy-phenyl]-2-(2-fluoro-2-methyl-propyl)-3-methyl-1,3,4,9-tetrahydropyrido[3,4-b]indole] | 0.263
C[C@@H]1Cc2c([nH]c3ccccc23)[C@@H](c2c(F)cc(OC3CN(CCCCF)C3)cc2F)N1CC(C)(C)F [Example 337, (1R,3R)-1-[2,6-difluoro-4-[1-(4-fluorobutyl)azetidin-3-yl]oxy-phenyl]-2-(2-fluoro-2-methyl-propyl)-3-methyl-1,3,4,9-tetrahydropyrido[3,4-b]indole] | 0.387
C[C@@H]1Cc2c([nH]c3ccccc23)[C@@H](c2cc(F)c(OC3CN(CCCCCF)C3)c(F)c2)N1CC(C)(C)F [Example 338, (1R,3R)-1-[3,5-difluoro-4-[1-(5-fluoropentyl)azetidin-3-yl]oxy-phenyl]-2-(2-fluoro-2-methyl-propyl)-3-methyl-1,3,4,9-tetrahydropyrido[3,4-b]indole] | 1
C[C@@H]1Cc2c([nH]c3ccccc23)[C@@H](c2cc(F)c(OC3CN(CCCF)C3)cc2F)N1CC(C)(C)F [Example 339, (1R,3R)-1-[2,5-difluoro-4-[1-(3-fluoropropyl)azetidin-3-yl]oxy-phenyl]-2-(2-fluoro-2-methyl-propyl)-3-methyl-1,3,4,9-tetrahydropyrido[3,4-b]indole] | 1
C[C@@H]1Cc2c([nH]c3ccccc23)[C@@H](c2c(F)cc(NC3CN(CCCF)C3)cc2F)N1CC(F)(F)CO [Example 340, 3-[(1R,3R)-1-[2,6-difluoro-4-[[1-(3-fluoropropyl)azetidin-3-yl]amino]phenyl]-3-methyl-1,3,4,9-tetrahydropyrido[3,4-b]indol-2-yl]-2,2-difluoro-propan-1-ol] | 0.203
C[C@@H]1Cc2c([nH]c3ccccc23)[C@@H](c2cnc(OC3CN(CCCF)C3)cn2)N1CC(C)(C)F [Example 342, (1S,3R)-2-(2-fluoro-2-methylpropyl)-1-(5-((1-(3-fluoropropyl)azetidin-3-yl)oxy)pyrazin-2-yl)-3-methyl-2,3,4,9-tetrahydro-1H-pyrido[3,4-b]indole] | 0.619

Second part, the compound after the results:

EC50 [nM] | Structure (SMILES)
0.2 | C[C@@H]1Cc2c([nH]c3ccccc23)[C@@H](c2c(F)cc(OC3(C)CN(CCCF)C3)cc2F)N1CC(C)(C)F [Example 343, (1R,3R)-1-(2,6-difluoro-4-((1-(3-fluoropropyl)-3-methylazetidin-3-yl)oxy)phenyl)-2-(2-fluoro-2-methylpropyl)-3-methyl-2,3,4,9-tetrahydro-1H-pyrido[3,4-b]indole]
0.347 | C[C@@H]1Cc2c([nH]c3ccccc23)[C@@H](c2ccc(OC3CN(CCCF)C3)cc2C#N)N1CC(C)(C)F [Example 344, 2-[(1R,3R)-2-(2-fluoro-2-methyl-propyl)-3-methyl-1,3,4,9-tetrahydropyrido[3,4-b]indol-1-yl]-5-[1-(3-fluoropropyl)azetidin-3-yl]oxy-benzonitrile]
12.3 | C[C@@H]1Cc2c([nH]c3ccccc23)[C@@H](c2ccn(CCCN3CC(CF)C3)c(=O)c2)N1CC(C)(C)F [Example 345, 4-((1R,3R)-2-(2-fluoro-2-methylpropyl)-3-methyl-2,3,4,9-tetrahydro-1H-pyrido[3,4-b]indol-1-yl)-1-(3-(3-(fluoromethyl)azetidin-1-yl)propyl)pyridin-2(1H)-one]
0.399 | C[C@@H]1Cc2c([nH]c3ccccc23)[C@@H](c2ccc(C(=O)C3CN(CCCF)C3)cc2)N1CC(C)(C)F [Example 346, [4-[(1R,3R)-2-(2-fluoro-2-methyl-propyl)-3-methyl-1,3,4,9-tetrahydropyrido[3,4-b]indol-1-yl]phenyl]-[1-(3-fluoropropyl)azetidin-3-yl]methanone]
14 | C[C@H](CN1[C@H](c2c(F)cc(OCCN3CC(CF)C3)cc2F)c2[nH]c3ccccc3c2C[C@H]1C)C(N)=O [Example 347, (R)-3-((1R,3R)-1-(2,6-difluoro-4-(2-(3-(fluoromethyl)azetidin-1-yl)ethoxy)phenyl)-3-methyl-1,3,4,9-tetrahydro-2H-pyrido[3,4-b]indol-2-yl)-2-methylpropanamide]
1 | C[C@H](CN1[C@H](c2c(F)cc(OC3CN(CCCF)C3)cc2F)c2[nH]c3ccccc3c2C[C@H]1C)C(=O)O [Example 348, (R)-3-((1R,3R)-1-(2,6-difluoro-4-((1-(3-fluoropropyl)azetidin-3-yl)oxy)phenyl)-3-methyl-1,3,4,9-tetrahydro-2H-pyrido[3,4-b]indol-2-yl)-2-methylpropanoic acid]
2.03 | C[C@@H]1Cc2c([nH]c3ccccc23)[C@@H](c2c(F)cc(OC3CN(CCCF)C3)cc2F)N1C[C@H](C)C(=O)O [Example 349, (S)-3-((1R,3R)-1-(2,6-difluoro-4-((1-(3-fluoropropyl)azetidin-3-yl)oxy)phenyl)-3-methyl-1,3,4,9-tetrahydro-2H-pyrido[3,4-b]indol-2-yl)-2-methylpropanoic acid]
33 | CC(CN1C(C)Cc2c([nH]c3ccccc23)C1c1c(F)cc(OC2CN(CCCF)C2)cc1F)C(=O)O (centres unmarked) [Example 351, 3-[1-[2,6-difluoro-4-[1-(3-fluoropropyl)azetidin-3-yl]oxy-phenyl]-3-methyl-1,3,4,9-tetrahydropyrido[3,4-b]indol-2-yl]-2-methyl-propanoic acid]
0.685 | C[C@@H]1Cc2c([nH]c3ccccc23)[C@@H](c2c(F)cc(NCCN3CC(CF)C3)cc2F)N1C[C@@](C)(F)CO [Example 352, (R)-3-((1R,3R)-1-(2,6-difluoro-4-((2-(3-(fluoromethyl)azetidin-1-yl)ethyl)amino)phenyl)-3-methyl-1,3,4,9-tetrahydro-2H-pyrido[3,4-b]indol-2-yl)-2-fluoro-2-methylpropan-1-ol]
0.033 | C[C@@H]1Cc2c([nH]c3ccccc23)[C@@H](c2c(F)cc(NCCN3CC(CF)C3)cc2F)N1C[C@](C)(F)CO [Example 353, (S)-3-((1R,3R)-1-(2,6-difluoro-4-((2-(3-(fluoromethyl)azetidin-1-yl)ethyl)amino)phenyl)-3-methyl-1,3,4,9-tetrahydro-2H-pyrido[3,4-b]indol-2-yl)-2-fluoro-2-methylpropan-1-ol]

— patent US20250114338A1, “TETRAHYDRO-PYRIDO[3,4-b]INDOLE ESTROGEN RECEPTOR MODULATORS AND USES THEREOF” (Genentech, Inc., priority 2014, published 2025)
